Common to all, as to type: functional
For assay [1], the system named is Pseudomonas aeruginosa. The assay is described as follows: Antibacterial activity against carbapenem-resistant Pseudomonas aeruginosa isolate 1C2 PTOL1 harboring beta-lactamase OXA-17 by broth microdilution method.
The subject of assay [2] is Pseudomonas aeruginosa. Description: Antibacterial activity against carbapenem-resistant Pseudomonas aeruginosa isolate 1C3 PTOL1 harboring acquired beta-lactamase OXA-17 by broth microdilution method.
The subject of assay [3] is Pseudomonas aeruginosa. Description: Antibacterial activity against carbapenem-resistant Pseudomonas aeruginosa isolate 1E1 PpA1 harboring acquired beta-lactamase OXA-144 by broth microdilution method. On the technique in general: Dilution methods test growth across graded concentrations, often in twofold steps.
Assay [4] has as its system Pseudomonas aeruginosa. The assay is described as follows: Antibacterial activity against carbapenem-resistant Pseudomonas aeruginosa isolate 1E2 PpA1 harboring acquired beta-lactamase OXA-144 by broth microdilution method.
Assay [5] deals with Pseudomonas aeruginosa. The assay is described as follows: Antibacterial activity against carbapenem-resistant Pseudomonas aeruginosa isolate 1E3 PpA2 harboring acquired beta-lactamase OXA-101 by broth microdilution method.
Assay [6] deals with Pseudomonas aeruginosa. Description: Antibacterial activity against carbapenem-resistant Pseudomonas aeruginosa isolate 1D5 SA1 harboring acquired beta-lactamase VIM-2 by broth microdilution method.
The test system of assay [7] is Pseudomonas aeruginosa. The assay is described as follows: Antibacterial activity against carbapenem-resistant Pseudomonas aeruginosa isolate 3C1 VAL6 by broth microdilution method.
Assay [8] has as its system Pseudomonas aeruginosa. The assay is described as follows: Antibacterial activity against carbapenem-resistant Pseudomonas aeruginosa isolate 3C8 GM1 harboring acquired beta-lactamase OXA-144 by broth microdilution method.
Assay [9] relates to Pseudomonas aeruginosa. The assay is described as follows: Antibacterial activity against carbapenem-resistant Pseudomonas aeruginosa isolate 3C9 GM1 harboring acquired beta-lactamase OXA-144 by broth microdilution method.
Assay [10] concerns Pseudomonas aeruginosa. The assay is described as follows: Antibacterial activity against carbapenem-resistant Pseudomonas aeruginosa isolate 3D2 GM2 harboring acquired beta-lactamase BEL-3 by broth microdilution method.
In assay [11] the test system is Pseudomonas aeruginosa. The assay is described as follows: Antibacterial activity against Pseudomonas aeruginosa PAO1 by broth microdilution method.
For assay [12], the system named is Pseudomonas aeruginosa. Description: Antibacterial activity against Pseudomonas aeruginosa PAO1 harboring acquired beta-lactamase OXA-2 by broth microdilution method.
The test system of assay [13] is Pseudomonas aeruginosa. Description: Antibacterial activity against Pseudomonas aeruginosa PAO1 harboring acquired beta-lactamase OXA-144 by broth microdilution method.
Assay [14] concerns Pseudomonas aeruginosa. Description: Antibacterial activity against Pseudomonas aeruginosa assessed as percent nonsusceptible isolates by broth microdilution assay.
Assay [15] deals with Pseudomonas aeruginosa. Description: Antibacterial activity against carbapenem-resistant Pseudomonas aeruginosa isolate 1B2 RCA2 harboring acquired beta-lactamase PER-1 by broth microdilution method.

The values that follow come from ChEMBL document CHEMBL1240358, “Activity of a new antipseudomonal cephalosporin, CXA-101 (FR264205), against carbapenem-resistant and multidrug-resistant Pseudomonas aeruginosa clinical strains” (2010).

Values after ≈ are worked out from the molar mass of the structure shown.

`CO/N=C(\C(=O)N[C@@H]1C(=O)N2C(C(=O)[O-])=C(C[N+]3(C)CCCC3)CS[C@H]12)c1csc(N)n1`: the MIC (as a rule, the lowest concentration that inhibits growth of the organism) in [1] was more than 64 µg/mL; in assay [2] it was more than 64 µg/mL; in [3] it was 16 µg/mL (≈ 33.3 µM); in assay [4] it was 32 µg/mL (≈ 66.6 µM); in [5], more than 64 µg/mL; in assay [6], 16 µg/mL (≈ 33.3 µM). Further, the minimal inhibitory concentration (MIC) in assay [7] was found to be 64 µg/mL (≈ 133 µM); in assay [8] it was 4 µg/mL (≈ 8.32 µM); in assay [9], 4 µg/mL (≈ 8.32 µM); in [10], 32 µg/mL (≈ 66.6 µM); in assay [11], 1 µg/mL (≈ 2.08 µM); in assay [12], 2 µg/mL (≈ 4.16 µM). Also, inhibition of growth in [13] (MIC) required 8 µg/mL (≈ 16.6 µM). Besides, the Activity in [14] was 68.2%.

On to `NCC[C@H](O)C(=O)N[C@@H]1C[C@H](N)[C@@H](O[C@H]2O[C@H](CN)[C@@H](O)[C@H](O)[C@H]2O)[C@H](O)[C@H]1O[C@H]1O[C@H](CO)[C@@H](O)[C@H](N)[C@H]1O` [AMIKACIN], for which the MIC in assay [1] was found to be 32 µg/mL (≈ 54.6 µM); in [2] it was 32 µg/mL (≈ 54.6 µM); in [3] it was 16 µg/mL (≈ 27.3 µM); in assay [4] it was 32 µg/mL (≈ 54.6 µM); in assay [5] it was 32 µg/mL (≈ 54.6 µM); in [15] it was 1 µg/mL (≈ 1.71 µM). For the same compound, the minimal inhibitory concentration (MIC) in assay [6] is 16 µg/mL (≈ 27.3 µM); in assay [7], 2 µg/mL (≈ 3.42 µM); in assay [8], 4 µg/mL (≈ 6.83 µM); in [9], 4 µg/mL (≈ 6.83 µM); in assay [10], 8 µg/mL (≈ 13.7 µM). Further, the Activity in assay [14] turned out to be 18.6%.

In the case of `CC(C)(O/N=C(\C(=O)N[C@@H]1C(=O)N2C(C(=O)[O-])=C(C[n+]3ccccc3)CS[C@H]12)c1csc(N)n1)C(=O)O` [CEFTAZIDIME], the MIC in [1] is more than 64 µg/mL; in assay [2] it was more than 64 µg/mL; in [3] it was more than 64 µg/mL; in assay [4] it was more than 64 µg/mL; in [5], 64 µg/mL (≈ 117 µM); in assay [15], more than 64 µg/mL. Also, the minimum inhibitory concentration (MIC) in assay [6] was 16 µg/mL (≈ 29.3 µM); in assay [7], more than 64 µg/mL; in assay [8] it was 32 µg/mL (≈ 58.5 µM); in [9], 32 µg/mL (≈ 58.5 µM); in [10], more than 64 µg/mL; in assay [11], 1 µg/mL (≈ 1.83 µM). Further, the results for the MIC in assay [12] and in [13] were 4 µg/mL (≈ 7.32 µM) and more than 64 µg/mL, respectively. The Activity in assay [14] is 46.2%.

Turning to `O=C(O)c1cn(C2CC2)c2cc(N3CCNCC3)c(F)cc2c1=O` [CIPROFLOXACIN], the MIC in assay [1] was 4 µg/mL (≈ 12.1 µM); in [2], 4 µg/mL (≈ 12.1 µM); in [4], 16 µg/mL (≈ 48.3 µM); in assay [5], 1 µg/mL (≈ 3.02 µM).

Consider `C[C@@H](O)[C@H]1C(=O)N2C(C(=O)O)=C(SCCNC=N)C[C@H]12` [IMIPENEM ANHYDROUS], for which the MIC in assay [1] is more than 64 µg/mL; in assay [2], more than 64 µg/mL; in assay [3], more than 64 µg/mL; in assay [4] it was more than 64 µg/mL; in assay [5] it was 16 µg/mL (≈ 53.4 µM); in [15] it was 64 µg/mL (≈ 214 µM). For the same compound, the MIC is more than 64 µg/mL in assay [6]; more than 64 µg/mL in [7]; more than 64 µg/mL in [8]; more than 64 µg/mL in [9]; 64 µg/mL (≈ 214 µM) in assay [10]; 1 µg/mL (≈ 3.34 µM) in assay [11]. In addition, the MIC in [12] and in assay [13] was 1 µg/mL (≈ 3.34 µM) throughout. Moreover, the Activity in assay [14] was 33.9%.

On to `C[C@@H](O)[C@H]1C(=O)N2C(C(=O)O)=C(S[C@@H]3CN[C@H](C(=O)N(C)C)C3)[C@H](C)[C@H]12` [MEROPENEM], for which the MIC in [3] was 16 µg/mL (≈ 41.7 µM); in assay [4], 32 µg/mL (≈ 83.4 µM); in assay [15], 16 µg/mL (≈ 41.7 µM); in [6], 16 µg/mL (≈ 41.7 µM); in assay [7] it was 4 µg/mL (≈ 10.4 µM); in assay [8] it was 4 µg/mL (≈ 10.4 µM). Further, the MIC in [9] is 4 µg/mL (≈ 10.4 µM); in assay [10] it was 4 µg/mL (≈ 10.4 µM); in [11], 0.25 µg/mL (≈ 0.652 µM); in assay [12], 0.5 µg/mL (≈ 1.3 µM); in assay [13], 0.5 µg/mL (≈ 1.3 µM). In [14], the Activity was found to be 52.1%.

As to `CCN1CCN(C(=O)N[C@@H](C(=O)N[C@@H]2C(=O)N3[C@@H]2SC(C)(C)[C@@H]3C(=O)O)c2ccccc2)C(=O)C1=O` [PIPERACILLIN], the MIC was 4 µg/mL (≈ 7.73 µM) in [11], 32 µg/mL (≈ 61.8 µM) in assay [12] and 16 µg/mL (≈ 30.9 µM) in [13]. The Activity in [14] came out at 28.4%.

For the compound `NC[C@H]1O[C@H](O[C@H]2[C@H](O)[C@@H](O[C@H]3O[C@H](CO)[C@@H](O)[C@H](N)[C@H]3O)[C@H](N)C[C@@H]2N)[C@H](N)C[C@@H]1O` [TOBRAMYCIN], the MIC in assay [1] is 32 µg/mL (≈ 68.4 µM); in assay [2], 64 µg/mL (≈ 137 µM); in assay [3] it was 64 µg/mL (≈ 137 µM); in [4], 64 µg/mL (≈ 137 µM); in [5], more than 64 µg/mL; in assay [15], less than 0.12 µg/mL. Also, the MIC is 64 µg/mL (≈ 137 µM) in assay [6]; less than 0.12 µg/mL in assay [7]; 16 µg/mL (≈ 34.2 µM) in assay [8]; 16 µg/mL (≈ 34.2 µM) in assay [9]; 8 µg/mL (≈ 17.1 µM) in assay [10]. In addition, the Activity in assay [14] turned out to be 33.9%.

Regarding GENTAMICIN, the Activity in assay [14] worked out at 58.9%.
